Data on nine compounds can be found in ChEMBL document CHEMBL1154488, “Synthesis, structure elucidation and antibacterial evaluation of new steroidal -5-en-7-thiazoloquinoxaline derivatives” (2008).

Type in all cases: functional
The subject of test [1] is Escherichia coli. The test can be described thus: Antibacterial activity against Escherichia coli after 18 hrs by disk diffusion method. In general terms: A growth-free zone around the sample is the usual read-out of agar diffusion tests.
In test [2] the test system is Escherichia coli. The test can be described thus: Antibacterial activity against Escherichia coli after 18 hrs by macrodilution test.
The test system of test [3] is Escherichia coli. The test can be described thus: Antibacterial activity against Escherichia coli at 30 ug/disk after 18 hrs by disk diffusion method. As to conditions: read-out: IZ.

Molecules are shown by their SMILES. Converted amounts (≈) assume the structure as drawn.

`CC(=O)O[C@H]1CC[C@@]2(C)C(=C/C(=N\Nc3nc4nc5ccccc5nc4s3)[C@H]3[C@@H]4CC[C@H]([C@H](C)CCCC(C)C)[C@@]4(C)CC[C@@H]32)C1`: in the test on Escherichia coli [1], the “inhibition zone (IZ)” value worked out at 20.8 mm. In the test on Escherichia coli [2], this compound showed an MIC of 64 µg/mL (≈ 99.7 µM).

For `O=C(N[C@H](CO)[C@H](O)c1ccc([N+](=O)[O-])cc1)C(Cl)Cl` [CHLORAMPHENICOL], the zone of inhibition at 30 µg/disc with Escherichia coli [3] turned out to be 20 mm. In the test with Escherichia coli [2], this compound registered an MIC of 32 µg/mL (≈ 99 µM).

Consider `CC(C)CCC[C@@H](C)[C@H]1CC[C@H]2[C@@H]3/C(=N/Nc4nc5nc6ccccc6nc5s4)C=C4C[C@@H](Cl)CC[C@]4(C)[C@H]3CC[C@]12C`, for which the “inhibition zone (IZ)” value in the test on Escherichia coli [1] was 22.4 mm. Moreover, in the test with Escherichia coli [2], inhibition of growth (MIC) required 32 µg/mL (≈ 51.8 µM).

Take `Clc1nc2ccccc2nc1Cl`: in the test with Escherichia coli [1], the “inhibition zone (IZ)” value was found to be 6.2 mm. In the test on Escherichia coli [2], the MIC came to 512 µg/mL (≈ 2570 µM).

On to `CC(=O)O[C@H]1CC[C@@]2(C)C(=C/C(=N\NC(N)=S)[C@H]3[C@@H]4CC[C@H]([C@H](C)CCCC(C)C)[C@@]4(C)CC[C@@H]32)C1`, for which the “inhibition zone (IZ)” value in the test with Escherichia coli [1] came to 13.2 mm. The compound further had an MIC in the test on Escherichia coli [2] of 128 µg/mL (≈ 248 µM).

For the compound `CC(C)CCC[C@@H](C)[C@H]1CC[C@H]2[C@@H]3CC=C4C[C@@H](O)CC[C@]4(C)[C@H]3CC[C@]12C` [CHOLESTEROL], the “inhibition zone (IZ)” value in the test with Escherichia coli [1] is 5.8 mm. In the test with Escherichia coli [2], it took 512 µg/mL (≈ 1320 µM) to inhibit growth (MIC).

Regarding `CC(C)CCC[C@@H](C)[C@H]1CC[C@H]2[C@@H]3/C(=N/Nc4nc5nc6ccccc6nc5s4)C=C4CCCC[C@]4(C)[C@H]3CC[C@]12C`, the “inhibition zone (IZ)” value in the test with Escherichia coli [1] is recorded as 14 mm. The compound also had an MIC in the test on Escherichia coli [2] of 128 µg/mL (≈ 219 µM).

`CC(C)CCC[C@@H](C)[C@H]1CC[C@H]2[C@@H]3/C(=N/NC(N)=S)C=C4CCCC[C@]4(C)[C@H]3CC[C@]12C`: the “inhibition zone (IZ)” value with Escherichia coli [1] stood at 9.8 mm. In the test on Escherichia coli [2], this compound displayed a minimum inhibitory concentration (MIC) of 256 µg/mL (≈ 559 µM).

Take `CC(C)CCC[C@@H](C)[C@H]1CC[C@H]2[C@@H]3/C(=N/NC(N)=S)C=C4C[C@@H](Cl)CC[C@]4(C)[C@H]3CC[C@]12C`: the “inhibition zone (IZ)” value with Escherichia coli [1] was 14.8 mm. The same compound showed an MIC in the test with Escherichia coli [2] of 64 µg/mL (≈ 130 µM).

As a reminder, the MIC is the lowest concentration that inhibits growth of the organism.
